Measurements reported in PMC9787607, “A Novel Protocol for the Synthesis of 1,2,4-Oxadiazoles Active against Trypanosomatids and Drug-Resistant Leukemia Cell Lines” (Tropical Medicine and Infectious Disease, 2022).

How the values were obtained:
K562 = assay: MTT cytotoxicity to CML cell line K562; assay type: cell-based; details: Homo sapiens, 72 h
Procedure: (§1) The CML cell lines K562, Lucena-1 (K562/VCR), and FEPS (K562/DNR) were cultured in RPMI-1640 medium supplemented with 25 mM HEPES and 2 g L^−1 sodium bicarbonate adjusted to pH 7.4 with NaOH, 100 U penicillin and […] streptomycin. All media were supplemented with 10% FBS. Dr. Vivian M. Rumjanek (Instituto de Bioquímica Médica, UFRJ, Brazil) kindly donated Lucena-1 and FEPS cells. Briefly, K562 cells were exposed to increasing concentrations of the chemotherapeutic drugs vincristine sulfate (VCR) and daunorubicin hydrochloride (DNR) (both from Sigma-Aldrich), as described previously. Lucena-1 (K562/VCR) and FEPS (K562/DNR) cells were cultured in the presence of either 60 nM VCR or 500 nM DNR to maintain the MDR phenotypes. For subcultures, cells were harvested every three days followed by washing with cold FBS, and a final concentration of 2 × 10^4 cells mL^−1 was maintained at 37 °C in 5% CO2.
(§2) Cell viability was determined by the 3-(4,5-dimethylthiazol-2-yl)-2,5-diphenyltetrazolium (MTT) colorimetric assay. CML cells (2 × 10^4 cells·mL^−1) were incubated for 72 h at 37 °C, followed by treatment with compounds at a range of concentrations (100–1 μM). Negative controls were prepared with 0.5% DMSO. An MTT salt solution was added to each well to a final concentration of 0.5 g·L^−1, and plates were incubated at 37 °C in 5% CO2 for 3 h. After centrifugation, 200 μL DMSO was added to dissolve the dark-blue formazan crystals formed by MTT reduction. Absorbance was measured on a microplate reader at 570 nm, which is directly proportional to formazan contents and indicative of living cells.
(§3) The percent cell or parasite viability was calculated by the formula: % viability = [(A − P)/(N − P)] × 100, A = absorbance of specific well, P = positive control, N = negative control. Determination of half-maximal effective concentrations (EC50), calculated by logarithmic regression, and significance analysis (p < 0.05), using ANOVA and Dunnett’s test, by GraphPad Prism 7.0 software. The results are expressed as the mean and standard deviation (SD) of three independent experiments.

[1] = test system: L. amazonensis amastigotes; assay: Anti-L. amazonensis amastigote assessment in RAW 264.7 macrophages; assay type: cell-based, Leishmania amazonensis; details: for EC50: Leishmania amazonensis, RAW264.7, in RAW 264.7, 48 h, read-out: EC50 L. amazonensis intracellular amastigotes; for S.I. (selectivity index): host cell/parasite EC50 ratio, RAW/L. amazonensis
Procedure: RAW 264.7 cells were seeded in a 96-well microplate (2.0 × 10^4 cells per well) in complete DMEM with 5% FBS and incubated for 3 h at 37 °C in 5% CO2 for cell adhesion. The medium was renewed, and L. amazonensis promastigotes (3.0 × 10^5 parasites per well) were added. After 24 h of incubation at 37 °C in 5% CO2, the cell monolayer was washed with PBS to remove noninternalized parasites, the medium was renewed, and compounds were added at a range of concentrations in triplicate (100–1 μM). Untreated infected cells and noninfected RAW 264.7 cells were used as negative and positive controls, respectively. Vehicle control containing DMEM and 0.3% DMSO was maintained for comparison. After incubation for 48 h at 37 °C in 5% CO2, the medium was removed, and a solution containing 0.02% SDS in PBS (20 µL per well) was added. Macrophage lysis and amastigote release were accompanied under an inverted microscope for 10–15 min. SIM with 12.5% SFB (80 µL per well) was added, parasites were allowed to differentiate into promastigotes for 48 h at 27 °C, and an MTT salt solution in PBS was added (3.0 mM, 20 µL per well). After incubation for 2 h at 27 °C, the MTT formazan was dissolved by adding 120 µL of solubilizing buffer (50% isopropanol, 40% acetate buffer pH 5.4, 10% Triton X). Absorbance was measured using a microplate reader at 570 nm.
as §3

FEPS (K562/DNR) = assay: MTT cytotoxicity to MDR CML cell line FEPS; assay type: cell-based, human; details: for RR (relative resistance) FEPS: (EC50 MDR cells)/(EC50 parental cells), FEPS/K562; for EC50: Homo sapiens, K562, 72 h, MTT
In short: (§4)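 K562 and its MDR sublines Lucena-1 (maintained in 60 nM VCR) and FEPS (500 nM DNR) seeded at 2 × 10^4 cells/mL in RPMI-1640 with 10% FBS, treated with compounds at 1–100 μM (0.5% DMSO controls). MTT 0.5 g/L for 3 h, A570 read; EC50 by logarithmic regression, three independent experiments.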

[2] = test system: L. amazonensis promastigotes; assay: Anti-L. amazonensis promastigote assessment (MTT); assay type: cell-based; details: Leishmania amazonensis; 48 h, MTT; read-out: EC50 L. amazonensis promastigotes
Procedure: Promastigotes of L. amazonensis (MHOM/BR/75/Josefa) were cultured in Schneider’s insect medium (SIM) with 10% FBS. Parasites were harvested at the stationary growth phase for assessment against promastigotes and 24 h after cultures reached the stationary growth phase for infection assays. […]. Complete SIM media and amphotericin B (AmB) at 10 µM were used as negative and positive controls, respectively. A vehicle control containing SIM with 10% SFB media and 0.3% DMSO was maintained for comparison. The final volume of the experiment was 100 µL. After incubation for 48 h at 27 °C, MTT salt solution in PBS was added (3.0 mM, 20 µL per well). After incubation for 2 h at 27 °C, the MTT formazan was dissolved by adding 120 µL of solubilizing buffer (50% isopropanol, 40% acetate buffer pH 5.4, 10% Triton-X). Absorbance was measured using a microplate reader at 570 nm.
as §3

Lucena-1 (K562/VCR) = assay: cells; assay type: cell-based, human; details: for RR (relative resistance) Lucena-1: (EC50 MDR cells)/(EC50 parental cells), Lucena-1/K562; for EC50: Homo sapiens, Lucena 1, 72 h, read-out: EC50 Lucena-1
In short: as §4

[3] = test system: drug-sensitive and drug-resistant chronic myeloid leukemia cell lines (K562, Lucena-1, FEPS); assay: MTT cytotoxicity to CML cell lines, statements over all lines; assay type: cell-based; details: Homo sapiens, K562-Lucena 1, statement over K562, Lucena-1 and FEPS; read-out: EC50 against CML cell lines
Procedure: as §1, §2

COc1cc(/C=C/c2nc(-c3ccccc3)no2)cc(OC)c1OC [Compound 12, (E)-3-phenyl-5-[2-(3,4,5-trimethoxyphenyl)vinyl]-1,2,4-oxadiazole]
EC50 (K562): 18 ± 0.9 µM
EC50 [1]: 50.1 ± 16.4 µM
S.I. (selectivity index) [1]: >2.0
RR (relative resistance) FEPS (FEPS (K562/DNR)): 1.42
EC50 (FEPS (K562/DNR)): 25.5 ± 4.9 µM
EC50 [2]: 26 ± 3 µM
RR (relative resistance) Lucena-1 (Lucena-1 (K562/VCR)): 2.42
EC50 (Lucena-1 (K562/VCR)): 43.5 ± 1.8 µM
EC50 [3]: < 20 µM

C(=C\c1nc(-c2ccccc2)no1)/c1cccnc1 [Compound 15, (E)-3-phenyl-5-[2-pyridyn-3-yl-vinyl]-1,2,4-oxadiazole]
EC50 (K562): 27.6 ± 5.8 µM
RR (relative resistance) FEPS (FEPS (K562/DNR)): 0.68
EC50 (FEPS (K562/DNR)): 18.7 ± 3.9 µM
EC50 [2]: 53.6 ± 2.2 µM
RR (relative resistance) Lucena-1 (Lucena-1 (K562/VCR)): 0.97
EC50 (Lucena-1 (K562/VCR)): 26.7 ± 7.2 µM
EC50 [3]: < 20 µM

COc1cc(/C=C/c2nc(-c3cc(OC)c(OC)c(OC)c3)no2)cc(OC)c1OC [Compound 23, (E)-3-(3,4,5-trimethoxyphenyl)-5-[2-(3,4,5-trimethoxyphenyl)-vinyl]-1,2,4-oxadiazole]
EC50 (K562): 13.2 ± 2.9 µM
lowest concentration with significant amastigote growth inhibition compared with host cell toxicity ([1]; L. amazonensis vs RAW 264.7, p < 0.05): 16 µM
EC50 [1]: 13.5 ± 3.6 µM
S.I. (selectivity index) [1]: >7.4
RR (relative resistance) FEPS (FEPS (K562/DNR)): 0.42
EC50 (FEPS (K562/DNR)): 5.5 ± 0.6 µM
EC50 [2]: 12.2 ± 0.7 µM
RR (relative resistance) Lucena-1 (Lucena-1 (K562/VCR)): 0.94
EC50 (Lucena-1 (K562/VCR)): 12.4 ± 2.5 µM

COc1cc(-c2noc(/C=C/c3ccc4c(c3)OCO4)n2)cc(OC)c1OC [Compound 24, (E)-3-(3,4,5-trimethoxyphenyl)-5-[2-(3,4-methylenedioxy-phenyl)vinyl]-1,2,4-oxadiazole]
EC50 (K562): 60.4 ± 4.1 µM
EC50 [1]: 24.8 ± 10.4 µM
S.I. (selectivity index) [1]: 2.3
RR (relative resistance) FEPS (FEPS (K562/DNR)): 0.15
EC50 (FEPS (K562/DNR)): 8.9 ± 0.3 µM
EC50 [2]: 10 ± 2.7 µM
RR (relative resistance) Lucena-1 (Lucena-1 (K562/VCR)): 1.37
EC50 (Lucena-1 (K562/VCR)): 82.6 ± 10.8 µM
EC50 [3]: < 20 µM
